The record followed here is US7893266B2, “Detection of cancer cells in vitro using sigma-2 receptor ligands as radiotracers” (Washington University, priority 2003, dated 2011).

The target in this experiment is T1, σ2 receptor (Rattus norvegicus, UniProt Q5U3Y7).
T1 construct: rat liver membrane homogenates (35 μg of protein); from tissue; host or cells: rat liver membrane homogenates
T1 sequence (Q5U3Y7 1-176): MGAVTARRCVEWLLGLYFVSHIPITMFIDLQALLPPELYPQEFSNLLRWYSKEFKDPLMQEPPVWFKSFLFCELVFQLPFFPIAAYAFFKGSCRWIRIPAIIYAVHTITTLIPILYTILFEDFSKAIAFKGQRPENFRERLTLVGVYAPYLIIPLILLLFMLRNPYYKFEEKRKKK
Briefly: σ2 receptor binding assay, [3H]DTG, rat liver membrane homogenates. The method, then: The σ2 receptor binding assay was conducted using rat liver membrane homogenates (35 μg of protein). […] Incubations were carried out in 50 mM Tris-HCl (pH 8.0) for 120 min at 25° C. in a total incubation volume of 0.5 ml. Test compounds were added in concentrations ranging from 0.005 to 1000 nM. […] Filters were washed twice with 5 ml of ice cold buffer. Nonspecific binding was determined in the presence of 5 μM DTG.

Structures are written as SMILES. Like-named read-outs stand apart in the source and are kept apart here.

Take `COc1cc2c(cc1OC)CN(CCNC(=O)c1cc(C)ccc1OC)CC2` [Compound 9]: the Ki (Mean ± SEM, rat liver, [3H]DTG, read-out: Ki σ2) worked out at 13.3 ± 0.1 nM and the Ki (Table I, unit inferred, read-out: σ2) came out at 13.3 nM.
